Test results taken from patent US9233977B2, “Leucine-rich repeat kinase enzyme activity” (Merck Sharp & Dohme Corp., priority 2010, dated 2016).

Target: T1, LRRK2 G2019S mutant kinase (Homo sapiens, UniProt Q5S007, G2019S)
T1 construct: GST; purchased Invitrogen PV4882
Test: LRRK2 G2019S LanthaScreen TR-FRET kinase assay
Format: biochemical
Conditions: LRRK2 G2019S GST-tagged protein, 75 nM Fluorescein-ERM (LRRKtide), 100 μM ATP, 1 hour at room temperature; read-out: IC50 (potency)
Method: The final solvent concentration in the assay was 1% DMSO. […] Generation of raw data and workup of data to derive the IC50 (potency) and maximal inhibition at concentrations tested were performed using Merck's Assay Data Analyzer (ADA) software.
The IC50 (potency) was evaluated for the example compounds presented above.

T1 sequence (Q5S007 whole entry G2019S): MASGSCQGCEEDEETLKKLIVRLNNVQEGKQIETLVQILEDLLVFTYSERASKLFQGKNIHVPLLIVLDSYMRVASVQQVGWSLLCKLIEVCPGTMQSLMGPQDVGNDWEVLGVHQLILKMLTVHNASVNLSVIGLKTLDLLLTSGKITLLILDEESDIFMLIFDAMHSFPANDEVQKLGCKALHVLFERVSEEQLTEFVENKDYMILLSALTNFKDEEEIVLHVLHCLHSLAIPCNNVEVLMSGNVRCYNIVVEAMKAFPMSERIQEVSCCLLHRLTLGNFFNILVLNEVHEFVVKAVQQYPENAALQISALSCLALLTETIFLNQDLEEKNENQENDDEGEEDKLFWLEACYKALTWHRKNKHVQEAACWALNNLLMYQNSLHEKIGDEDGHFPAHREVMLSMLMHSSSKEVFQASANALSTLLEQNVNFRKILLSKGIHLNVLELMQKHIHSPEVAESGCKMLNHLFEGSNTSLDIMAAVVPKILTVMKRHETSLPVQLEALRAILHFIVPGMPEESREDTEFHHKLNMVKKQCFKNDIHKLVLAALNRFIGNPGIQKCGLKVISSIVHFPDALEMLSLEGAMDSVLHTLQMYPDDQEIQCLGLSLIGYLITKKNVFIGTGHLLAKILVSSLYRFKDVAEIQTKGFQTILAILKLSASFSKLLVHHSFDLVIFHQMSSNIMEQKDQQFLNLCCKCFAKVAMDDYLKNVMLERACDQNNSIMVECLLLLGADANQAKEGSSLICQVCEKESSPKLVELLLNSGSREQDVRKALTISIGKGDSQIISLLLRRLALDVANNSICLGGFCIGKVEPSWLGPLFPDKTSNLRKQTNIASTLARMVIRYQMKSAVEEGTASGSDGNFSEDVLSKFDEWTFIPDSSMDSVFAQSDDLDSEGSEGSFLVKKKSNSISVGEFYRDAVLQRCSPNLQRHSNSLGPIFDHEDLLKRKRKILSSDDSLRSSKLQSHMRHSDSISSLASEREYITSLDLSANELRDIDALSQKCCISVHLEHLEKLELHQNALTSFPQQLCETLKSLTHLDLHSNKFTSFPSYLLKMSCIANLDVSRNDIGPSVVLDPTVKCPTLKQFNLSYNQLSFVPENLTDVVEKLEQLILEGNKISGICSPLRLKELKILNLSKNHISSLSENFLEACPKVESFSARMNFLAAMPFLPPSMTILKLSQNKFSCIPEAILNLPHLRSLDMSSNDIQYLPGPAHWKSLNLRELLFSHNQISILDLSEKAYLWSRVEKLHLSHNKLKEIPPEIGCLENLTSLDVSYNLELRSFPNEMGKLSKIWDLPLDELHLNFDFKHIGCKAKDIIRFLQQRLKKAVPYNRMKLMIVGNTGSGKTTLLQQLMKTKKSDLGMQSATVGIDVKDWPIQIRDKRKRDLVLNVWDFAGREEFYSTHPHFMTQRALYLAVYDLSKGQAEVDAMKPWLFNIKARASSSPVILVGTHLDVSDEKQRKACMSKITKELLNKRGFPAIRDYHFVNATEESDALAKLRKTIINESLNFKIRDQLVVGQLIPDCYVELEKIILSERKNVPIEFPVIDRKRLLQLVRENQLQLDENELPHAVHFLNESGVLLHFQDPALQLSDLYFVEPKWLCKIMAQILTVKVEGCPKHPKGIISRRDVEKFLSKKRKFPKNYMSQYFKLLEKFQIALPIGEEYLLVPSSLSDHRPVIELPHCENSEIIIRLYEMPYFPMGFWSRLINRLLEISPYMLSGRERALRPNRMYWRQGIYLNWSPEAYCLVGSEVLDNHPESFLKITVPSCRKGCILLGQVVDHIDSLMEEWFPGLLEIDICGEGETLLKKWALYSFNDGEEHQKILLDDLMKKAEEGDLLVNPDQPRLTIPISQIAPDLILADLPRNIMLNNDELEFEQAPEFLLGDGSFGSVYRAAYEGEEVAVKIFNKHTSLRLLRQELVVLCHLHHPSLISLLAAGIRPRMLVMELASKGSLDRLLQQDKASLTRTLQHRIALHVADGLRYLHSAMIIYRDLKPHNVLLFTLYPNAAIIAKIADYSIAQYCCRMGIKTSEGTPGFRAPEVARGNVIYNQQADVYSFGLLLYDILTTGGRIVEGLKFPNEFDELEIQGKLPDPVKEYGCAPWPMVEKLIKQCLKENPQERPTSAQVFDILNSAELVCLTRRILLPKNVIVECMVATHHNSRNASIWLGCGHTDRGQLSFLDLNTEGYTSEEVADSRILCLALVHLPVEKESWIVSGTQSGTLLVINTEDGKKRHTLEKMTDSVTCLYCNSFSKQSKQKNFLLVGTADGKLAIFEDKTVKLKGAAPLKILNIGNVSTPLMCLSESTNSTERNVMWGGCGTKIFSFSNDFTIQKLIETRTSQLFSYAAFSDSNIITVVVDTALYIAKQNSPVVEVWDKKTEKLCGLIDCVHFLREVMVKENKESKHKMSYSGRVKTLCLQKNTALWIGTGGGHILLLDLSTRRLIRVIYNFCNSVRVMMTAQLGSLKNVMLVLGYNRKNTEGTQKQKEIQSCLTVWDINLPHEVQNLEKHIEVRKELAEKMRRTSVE

Structure (SMILES)	IC50 [nM]
CCN1CCc2c(-c3cc[nH]n3)sc(SC)c2C1=O [Example 76, 5-ethyl-3-(methylsulfanyl)-1-(1H-pyrazol-3-yl)-6,7-dihydrothieno[3,4-c]pyridin-4(5)-one]	2200
CSc1sc(-c2cc[nH]n2)c2c1C(=O)N(Cc1ccccc1)CC2 [Example 77, 5-benzyl-3-(methylsulfanyl)-1-(1H-pyrazol-3-yl)-6,7-dihydrothieno[3,4-c]pyridin-4(5)-one]	1300
CSc1sc(-c2cc[nH]n2)c2c1C(=O)N(CCc1ccccn1)CC2 [Example 78, 3-(methylsulfanyl)-5-[2-(2-pyridyl)ethyl]-1-(1H-pyrazol-3-yl)-6,7-dihydrothieno[3,4-c]pyridin-4(5)-one]	5700
CSc1sc(-c2cc[nH]n2)c2c1C(=O)N(CCCc1ccccc1)CC2 [Example 79]	3500
CSc1sc(-c2cc[nH]n2)c2c1C(=O)N(CCN1CCCCC1)CC2 [Example 80, 3-(methylsulfanyl)-5-[2-(piperidin-1-yl)ethyl]-1-(1H-pyrazol-3-yl)-6,7-dihydrothieno[3,4-c]pyridin-4(5)-one]	7800
CSc1sc(-c2cc[nH]n2)c2c1C(=O)N(c1ccccc1)CC2 [Example 81, 3-(Methylsulfanyl)-5-phenyl-1-(1H-pyrazol-3-yl)-6,7-dihydrothieno[3,4-c]pyridin-4(5H)-one]	2000
CSc1sc(-c2cc[nH]n2)c2c1C(=O)N(c1cccc(F)c1)CC2 [Example 82, 5-(3-fluorophenyl)-3-(methylsulfanyl)-1-(1H-pyrazol-3-yl)-6,7-dihydrothieno[3,4-c]pyridin-4(5)-one]	4000
CSc1sc(-c2cc[nH]n2)c2c1C(=O)N(c1ccc(C)cc1)CC2 [Example 83]	3300
COc1cccc(N2CCc3c(-c4cc[nH]n4)sc(SC)c3C2=O)c1 [Example 84, 5-(3-methoxyphenyl)-3-(methylsulfanyl)-1-(1H-pyrazol-3-yl)-6,7-dihydrothieno[3,4-c]pyridin-4(5)-one]	4700
CSc1sc(-c2cc[nH]n2)c2c1C(=O)N(c1ccccc1F)CC2 [Example 85, 5-(2-fluorophenyl)-3-(methylsulfanyl)-1-(1H-pyrazol-3-yl)-6,7-dihydrothieno[3,4-c]pyridin-4(5)-one]	3100
CC1CNC(=O)c2c(NC3CCCC3)sc(-c3cc[nH]n3)c21 (stereo not shown) [Example 86, 3-(cyclopentylamino)-7-methyl-1-(1H-pyrazol-3-yl)-6,7-dihydrothieno[3,4-e]pyridin-4(5H)-one]	120
CC1Cc2c(-c3cc[nH]n3)sc(NC3CCCC3)c2C(=O)N1 (stereo not shown) [Example 87, 3-(cyclopentylamino)-6-methyl-1-(1H-pyrazol-3-yl)-6,7-dihydrothieno[3,4-c]pyridin-4(5H)-one]	320
O=C1NC2(CCC2)Cc2c(-c3cc[nH]n3)sc(NC3CCCC3)c21 [Example 88, 3′-(cyclopentylamino)-4′-oxo-1′-(1H-pyrazol-3-yl)-7′H-spiro[cyclobutane-1,6′-thieno[3,4-1]pyridine]-4′(5′H)-one]	120
CC(C)CC1Cc2c(-c3cc[nH]n3)sc(NC3CCCC3)c2C(=O)N1 (stereo not shown) [Example 89, 3-(cyclopentylamino)-6-(2-methyl)propyl-1-(1H-pyrazol-3-yl)-6,7-dihydrothieno[3,4-c]pyridin-4(5H)-one]	190

Other lines, results leading:

IC50 [nM]	Structure (SMILES)
360	O=C1NCCc2c(-c3cc[nH]n3)sc(NC3CCCC3)c21 [Example 90, 3-(cyclopentylamino)-(1H-pyrazol-3-yl)-6,7-dihydrothieno[3,4-c]pyridin-4(5H)-one]
1400	CNc1sc(-c2cc[nH]n2)c2c1C(=O)NCC2 [Example 91, 3-(methylamino)-(1H-pyrazol-3-yl)-6,7-dihydrothieno[3,4-c]pyridin-4(5H)-one]
290	O=C1NC(Cc2ccccc2)Cc2c(-c3cc[nH]n3)sc(NC3CCCC3)c21 (stereo not shown) [Example 92, 3-(cyclopentylamino)-6-benzyl-1-(1H-pyrazol-3-yl)-6,7-dihydrothieno[3,4-c]pyridin-4(5H)-one]
330	CNc1sc(-c2cc[nH]n2)c2c1C(=O)NC(Cc1ccccc1)C2 (stereo not shown) [Example 93, 3-(methylamino)-6-benzyl-1-(1H-pyrazol-3-yl)-6,7-dihydrothieno[3,4-c]pyridin-4(5H)-one]
550	CNc1sc(-c2cc[nH]n2)c2c1C(=O)NC1(CCC1)C2 [Example 94, 3′-(methylamino)-4′-oxo-1′-(1H-pyrazol-3-yl)-7′H-spiro[cyclobutane-1,6′-thieno[3,4-1]pyridine]-4′(5′H)-one]
470	CNc1sc(-c2cc[nH]n2)c2c1C(=O)NC(CC(C)C)C2 (stereo not shown) [Example 95, 3-(methylamino)-6-(2-methyl)propyl-1-(1H-pyrazol-3-yl)-6,7-dihydrothieno[3,4-c]pyridin-4(5H)-one]
370	CNc1sc(-c2cc[nH]n2)c2c1C(=O)NCC2C (stereo not shown) [Example 96, 3-(methylamino)-7-methyl-1-(1H-pyrazol-3-yl)-6,7-dihydrothieno[3,4-c]pyridin-4(5H)-one]
320	C[C@H]1Cc2c(-c3cc[nH]n3)sc(NC3CCCC3)c2C(=O)N1 [Example 97, (6S)-3-(cyclopentylamino)-6-methyl-1-(1H-pyrazol-3-yl)-6,7-dihydrothieno[3,4-c]pyridin-4(5H)-one]
330	C[C@@H]1Cc2c(-c3cc[nH]n3)sc(NC3CCCC3)c2C(=O)N1 [Example 98, (6R)-3-(cyclopentylamino)-6-methyl-1-(1H-pyrazol-3-yl)-6,7-dihydrothieno[3,4-c]pyridin-4(5H)-one]
1200	CNc1sc(-c2cc[nH]n2)c2c1C(=O)N[C@@H](C)C2 [Example 99, (6S)-3-(methylamino)-6-methyl-1-(1H-pyrazol-3-yl)-6,7-dihydrothieno[3,4-c]pyridin-4(5H)-one]
3100	CNc1sc(-c2cc[nH]n2)c2c1C(=O)N[C@H](C)C2 [Example 100, (6R)-3-(methylamino)-6-methyl-1-(1H-pyrazol-3-yl)-6,7-dihydrothieno[3,4-c]pyridin-4(5H)-one]
